Source: paper PMC8900595 (Journal of medicinal chemistry, 2021)

Columns and labels:
A549 cells = settings: human
A/WSN/33 [1] = assay: microbe, parasite or virus in culture; type: cell-based, influenza A virus
[2] = system: H1N1 (A/California/07/2009); type: cell-based, influenza A virus
H3N2 (A/Wyoming/03/2003) = type: cell-based, influenza A virus
WSN-PB2-Nanoluc virus [3] = type: cell-based, influenza A virus
influenza virus = type: cell-based
A/WSN/33 [4] = type: cell-based, influenza A virus
[5] = system: H5N1 A/Vietnam/1203/2004 HaLo virus; type: cell-based, influenza A virus; settings: 25 μM, MOI = 0.01, 24 h, A549 cells
A/WSN/33 [6] = type: cell-based, influenza A virus; remark: listed apart in the source
[7] = system: HA-mediated membrane fusion; type: cell-based, influenza A virus; settings: pH 5
WSN-PB2-Nanoluc virus [8] = assay: microbe, parasite or virus in culture; type: cell-based; settings: Influenza A virus, HCT-116, read-out: IC50, Nanoluc levels
[9] = system: poly(A) RNA and GAPDH mRNA; assay: RNA-FISH and smRNA-FISH of cellular RNA in uninfected cells; type: cell-based, human; settings: 1 μM
H3N2 A/Panama/1999 = type: cell-based, influenza A virus
H1N1 A/WSN/1933 virus = type: cell-based, influenza A virus

| SMILES | Cytotoxicity (MTT) CC10 (A549 cells) | antiviral activity as described in SAR text (A/WSN/33 [1]) | selectivity index (A/WSN/33 [1]) | number of infected cells [2] | number of infected cells (H3N2 (A/Wyoming/03/2003)) | activity under the assay conditions (WSN-PB2-Nanoluc virus [3]) | also measured |
| --- | --- | --- | --- | --- | --- | --- | --- |
| CCN(c1ccc(F)cc1F)S(=O)(=O)c1cc(Cl)ccc1Cl [compound 21, 2,5-Dichloro-N-(2,4-difluorophenyl)-N-ethylbenzenesulfonamide] | >5 µM | equipotent to compound 1 | >96 | robustly reduced the number of cells infected | slightly inhibited the number of infected cells |  |  |
| C#CCCC1(CCN(c2ccc(Cl)cc2C)S(=O)(=O)c2cc(Cl)ccc2Cl)N=N1 [compound 52, N-(2-(3-(But-3-yn-1-yl)-3H-diazirin-3-yl)ethyl)-2,5-dichloro-N-(4-chloro-2-methylphenyl)benzenesulfonamide] |  |  |  |  |  | not active |  |
| O=S(=O)(c1cc(Cl)ccc1Cl)N1CCc2cc(Cl)ccc21 [compound 49, 5-Chloro-1-((2,5-dichlorophenyl)sulfonyl)indoline] |  |  |  |  |  | inactive |  |
| CCN(c1ccc(Cl)cc1C)S(=O)(=O)c1cc(Cl)ccc1Cl [compound 12, 2,5-Dichloro-N-(4-chloro-2-methylphenyl)-N-ethylbenzenesulfonamide] | >5 µM | generally more potent | >147 | robustly reduced the number of cells infected | more effectively decreased infection |  |  |
| CCN(c1ccccc1C)S(=O)(=O)c1cc(Cl)ccc1Cl [compound 1, 2,5-dichloro-N-ethyl-N-(o-tolyl)-benzenesulfonamide] | >25 µM |  | >625 | robustly reduced the number of cells infected | slightly inhibited the number of infected cells |  | viral mRNA levels in primary cells (influenza virus): robustly decreased viral mRNA levels; antiviral activity when used shortly post-infection (western blot NP, M1) (A/WSN/33 [4]): lack of antiviral activity; viral protein levels (western blot) (A/WSN/33 [4]): reduced levels of influenza virus proteins; reduction of viral titers [5]: four; viral M mRNA expression, compound added after infection (A/WSN/33 [6]): robustly expressed; viral M mRNA expression, compound added prior to infection (A/WSN/33 [6]): expressed at very low levels; viral mRNA levels (HA, NS1, M1, M2) by qPCR (A/WSN/33 [6]): reduced levels of viral mRNAs; viral mRNA levels (M, HA, NS) by smRNA-FISH (A/WSN/33 [6]): reduced influenza virus (A/WSN/33) mRNA levels; inhibition of fusion (hemolysis) [7]: robust inhibition of fusion; IC50 (WSN-PB2-Nanoluc virus [8]): 0.0168 µM; effect on cellular bulk poly(A) RNA or GAPDH [9]: did not have a significant effect; reduction of viral titers (H3N2 A/Panama/1999): four; reduction of viral titers (H1N1 A/WSN/1933 virus): four |
